In patent US12268682B2, “Anticancer drug FL118 formulation for treatment of human cancer” (CANGET BIOTEKPHARMA, LLC, priority 2019, dated 2025):
Where two headings read alike, the source gives them in different places.

Key:
ABCG2/BCRP = target: T1, ABCG2/BCRP (Homo sapiens, UniProt Q9UNQ0); conditions: cited from earlier work
T1 sequence (Q9UNQ0 1-655): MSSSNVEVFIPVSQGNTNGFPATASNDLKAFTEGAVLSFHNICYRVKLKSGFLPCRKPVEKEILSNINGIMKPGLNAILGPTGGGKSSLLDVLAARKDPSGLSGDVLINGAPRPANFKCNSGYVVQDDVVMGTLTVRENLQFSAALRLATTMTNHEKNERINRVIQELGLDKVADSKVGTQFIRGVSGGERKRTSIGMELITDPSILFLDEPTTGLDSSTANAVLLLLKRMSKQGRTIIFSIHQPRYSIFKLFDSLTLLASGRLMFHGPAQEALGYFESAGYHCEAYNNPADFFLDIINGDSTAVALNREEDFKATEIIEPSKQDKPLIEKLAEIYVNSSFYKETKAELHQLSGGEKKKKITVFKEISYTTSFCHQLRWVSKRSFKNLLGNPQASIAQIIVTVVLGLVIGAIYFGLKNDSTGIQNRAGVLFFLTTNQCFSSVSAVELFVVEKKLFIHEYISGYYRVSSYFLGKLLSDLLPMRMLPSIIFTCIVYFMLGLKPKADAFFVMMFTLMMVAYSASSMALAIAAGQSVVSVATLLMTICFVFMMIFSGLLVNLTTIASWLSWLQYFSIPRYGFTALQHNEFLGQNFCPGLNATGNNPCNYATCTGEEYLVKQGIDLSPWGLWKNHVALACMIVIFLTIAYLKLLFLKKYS

Pgp/MDR1 = Pgp/MDR1 (Homo sapiens, UniProt P08183); conditions: cited from earlier work
MM cells = conditions: previously demonstrated; cited from earlier work
MM cell lines = assay: BLI-based cytotoxicity assay using LUC-transduced MM cell lines; design: species or system human; conditions: two MM cell lines, BMMSCs or HS-5
Description: Cell lines and culture: Luciferase (LUC)-transduced MM cell lines RPMI 8226, JJN3, UM9, MM1.s, U266, L363, and OPM-2 were cultured in RPMI 1640 (Life Technologies), supplemented with 10% heat-inactivated HyClone FetalClone I serum (GE Healthcare Life Sciences) and (penicillin, 10.000 U/mL; streptomycin, […]; InVitrogen,). HS-5 was cultured in DMEM (Life Technologies), supplemented with heat-inactivated FBS (Sigma) and antibiotics.

Sequence of Pgp/MDR1 (P08183 whole entry): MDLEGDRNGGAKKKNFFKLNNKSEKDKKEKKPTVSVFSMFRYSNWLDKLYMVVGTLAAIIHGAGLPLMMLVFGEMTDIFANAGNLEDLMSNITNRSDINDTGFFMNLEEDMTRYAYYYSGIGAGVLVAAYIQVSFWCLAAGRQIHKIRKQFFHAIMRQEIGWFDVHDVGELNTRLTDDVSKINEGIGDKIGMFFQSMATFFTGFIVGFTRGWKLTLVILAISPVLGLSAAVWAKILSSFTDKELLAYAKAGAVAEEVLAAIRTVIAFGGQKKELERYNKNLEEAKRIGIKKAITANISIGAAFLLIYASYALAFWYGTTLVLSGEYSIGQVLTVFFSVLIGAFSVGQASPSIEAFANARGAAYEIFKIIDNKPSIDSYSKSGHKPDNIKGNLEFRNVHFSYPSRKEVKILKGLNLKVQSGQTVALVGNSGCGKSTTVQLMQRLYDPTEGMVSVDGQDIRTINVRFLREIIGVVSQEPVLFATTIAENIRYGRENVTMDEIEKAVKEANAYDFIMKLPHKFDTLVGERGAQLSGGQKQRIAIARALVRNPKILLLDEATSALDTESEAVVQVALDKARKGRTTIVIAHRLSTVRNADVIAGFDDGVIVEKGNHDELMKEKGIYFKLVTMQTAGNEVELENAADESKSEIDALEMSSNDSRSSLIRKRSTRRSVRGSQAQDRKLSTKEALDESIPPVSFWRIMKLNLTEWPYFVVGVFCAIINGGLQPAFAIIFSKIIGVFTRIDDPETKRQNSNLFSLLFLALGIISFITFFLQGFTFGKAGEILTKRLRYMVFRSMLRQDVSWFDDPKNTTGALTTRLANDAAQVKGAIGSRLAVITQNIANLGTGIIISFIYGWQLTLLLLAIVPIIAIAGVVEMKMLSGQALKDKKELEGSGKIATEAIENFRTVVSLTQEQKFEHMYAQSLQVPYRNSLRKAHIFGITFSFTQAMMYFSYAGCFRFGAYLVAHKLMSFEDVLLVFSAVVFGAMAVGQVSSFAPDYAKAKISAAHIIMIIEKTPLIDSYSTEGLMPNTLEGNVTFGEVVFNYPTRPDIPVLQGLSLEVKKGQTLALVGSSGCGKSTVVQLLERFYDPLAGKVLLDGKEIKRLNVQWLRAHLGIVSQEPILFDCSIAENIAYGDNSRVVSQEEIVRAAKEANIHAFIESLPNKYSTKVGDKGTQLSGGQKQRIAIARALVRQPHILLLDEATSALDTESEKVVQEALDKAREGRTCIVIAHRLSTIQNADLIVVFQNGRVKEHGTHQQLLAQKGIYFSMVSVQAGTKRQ

| Compound | lysis of MM cell lines by the drug upon co-culture with stromal cells (MM cell lines) | substrate of efflux pump ABCG2/BCRP (ABCG2/BCRP) | substrate of efflux pump Pgp/MDR1 (Pgp/MDR1) | also measured |
| --- | --- | --- | --- | --- |
| CCc1c2c(nc3ccc(O)cc13)-c1cc3c(c(=O)n1C2)COC(=O)[C@]3(O)CC [SN-38] |  |  |  | substrate of efflux pump ABCG2/BCRP (ABCG2/BCRP; not told): substrates; substrate of efflux pump Pgp/MDR1 (Pgp/MDR1; not told): substrates |
| COCCn1c2c([n+](Cc3cnccn3)c1C)C(=O)c1ccccc1C2=O [YM155] |  |  |  | modulation of BMMSC-mediated protection against CTLs and daratumumab-dependent ADCC (MM cells): effective modulation |
| CC(C)C[C@H](NC(=O)[C@H](Cc1ccccc1)NC(=O)c1cnccn1)B(O)O [bortezomib, reference compound] | significantly inhibited |  |  |  |
| COc1cccc2c1C(=O)c1c(O)c3c(c(O)c1C2=O)C[C@@](O)(C(=O)CO)C[C@@H]3O[C@H]1C[C@H](N)[C@H](O)[C@H](C)O1 [doxorubicin, reference compound] | significantly inhibited |  |  |  |
| CCc1c2c(nc3ccc(OC(=O)N4CCC(N5CCCCC5)CC4)cc13)-c1cc3c(c(=O)n1C2)COC(=O)[C@]3(O)CC [irinotecan] |  | substrates | substrates |  |
| CC[C@@]1(O)C(=O)OCc2c1cc1n(c2=O)Cc2cc3c(CN(C)C)c(O)ccc3nc2-1 [topotecan] |  | substrates | substrates |  |
